{"source": "patent US20070213388A1", "about": "“Acetylcholinesterase Inhibitors and N-Methyl-D-Aspartate Antagonists Useful in the Treatment of Cognitive Disorders” (priority 2004, published 2007)", "origin": "cited, not measured here", "key": {"[1]": {"test_system": "cholinesterase", "conditions": "see WO 00/248150"}, "[2]": {"test_system": "cytochrome P450 (CYP 450) isoenzymes", "conditions": "in vitro"}, "[3]": {"target": "neuronal receptors (NMDA receptor)", "conditions": "at -67 mV"}, "[4]": {"test": "not given", "remark": "listed apart in the source"}, "[5]": {"target": "T1, AChE (Rattus norvegicus, UniProt P37136)", "T1 construct": "from tissue; host or cells: rat", "T1 sequence (P37136 32-614)": "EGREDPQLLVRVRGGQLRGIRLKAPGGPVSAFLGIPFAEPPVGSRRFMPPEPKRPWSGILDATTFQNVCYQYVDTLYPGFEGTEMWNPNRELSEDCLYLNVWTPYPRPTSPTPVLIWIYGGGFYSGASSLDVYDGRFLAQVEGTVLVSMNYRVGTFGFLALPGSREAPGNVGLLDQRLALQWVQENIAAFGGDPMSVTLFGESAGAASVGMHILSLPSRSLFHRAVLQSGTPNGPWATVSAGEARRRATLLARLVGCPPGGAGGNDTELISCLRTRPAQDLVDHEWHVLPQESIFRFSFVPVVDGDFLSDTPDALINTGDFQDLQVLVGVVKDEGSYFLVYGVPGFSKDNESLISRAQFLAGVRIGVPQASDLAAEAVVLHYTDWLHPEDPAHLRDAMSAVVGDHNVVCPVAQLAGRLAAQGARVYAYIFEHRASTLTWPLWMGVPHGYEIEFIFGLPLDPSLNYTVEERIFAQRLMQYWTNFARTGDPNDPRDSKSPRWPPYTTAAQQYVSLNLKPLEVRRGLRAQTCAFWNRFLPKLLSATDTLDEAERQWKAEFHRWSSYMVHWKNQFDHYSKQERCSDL", "conditions": "rats, after phenserine administration"}, "[6]": {"test_system": "brain ACh levels", "conditions": "conscious, freely-moving rats, striatal microdialysis"}, "[7]": {"conditions": "rats, i.v. dosing"}}, "data": [{"smiles": "CN1CC[C@@]2(C)c3cc(OC(=O)Nc4ccccc4)ccc3N(C)C12", "note": "(single isomer, unassigned; (+)) [(+)-phenserine]", "values": [{"measurement": "cholinesterase activity", "setting": "[1]", "value": "lacks cholinesterase activity"}]}, {"smiles": "CC12CC3CC(C)(C1)CC(N)(C3)C2.Cl", "note": "[memantine, 1-amino-3,5-dimethyladamantane hydrochloride]", "values": [{"measurement": "inhibition of cytochrome P450 (CYP 450) isoenzymes", "setting": "[2]", "value": "does not inhibit"}, {"measurement": "water solubility", "value": "water soluble"}, {"measurement": "IC50", "setting": "[3]", "value": 1400, "unit": "nM"}, {"measurement": "CSF/serum ratio", "setting": "[4]; crosses the blood brain barrier", "value": 0.52}, {"measurement": "terminal elimination half-life", "setting": "[4]; humans, oral dose", "value": "60 to 80", "unit": "h"}]}, {"smiles": "CN1CC[C@]2(C)c3cc(OC(=O)Nc4ccccc4)ccc3N(C)C12", "note": "(single isomer, unassigned; (-)) [phenserine, (−)-N-phenylcarbamoyl eseroline]", "values": [{"measurement": "inhibition of AChE", "setting": "[5]", "value": "> 70", "unit": "%"}, {"measurement": "rise in brain ACh levels", "setting": "[6]", "value": "greater than 3 fold"}, {"measurement": "brain drug levels relative to plasma", "setting": "[7]", "value": 10, "unit": "fold"}, {"measurement": "time to peak drug levels", "setting": "[7]", "value": "≤ 5", "unit": "min"}, {"measurement": "half-life of brain drug levels", "setting": "[7]; brain", "value": 8.5, "unit": "min"}, {"measurement": "half-life of plasma drug levels", "setting": "[7]; plasma", "value": 12.6, "unit": "min"}]}]}
